# Test results from patent US20250346574A1, “PYRIDINYL SUBSTITUTED OXOISOINDOLINE COMPOUNDS FOR THE TREATMENT OF CANCER” (Bristol-Myers Squibb Company, priority 2021, published 2025).
# Target: Helios (Homo sapiens, UniProt Q96SW2+Q9UKS7)
# Test: Helios Human T Regulatory Cells Degradation Assay
# Assay type: cell-based
# Design: fluorescently labelled antibodies against Helios in 1× Permeabilization buffer; endogenous in cells; host or cells: cryopreserved human T regulatory cells
# Settings: cryopreserved human T regulatory cells, incubated 20 hours, Helios-APC antibody staining, flow cytometry; read-out: hTreg Helios DC50
# Procedure: Cryopreserved human T regulatory cells were thawed in RPMI+10% FBS+20 ng/mL IL-2. After being spun at 1200 rpm for 5 mins, the cells were resuspended in RPMI+10% FBS+20 ng/mL and rested at 37° C. with 5% CO2 for 3 hours. […] Cell cultures were incubated for 20 hours at 37° C. and 5% CO2. In order to facilitate analysis, cell cultures were spun down at 1200 rpm for 5 minutes and the supernatant was discarded using an EL406 plate washer. After washing three times with 70 μL PBS, cell pellets were resuspended in 50 μL of near IR viability staining solution (Life Technologies, Cat #L34975) and incubated for 30 minutes on ice protected from light. Cells were washed three times with 70 μL PBS+0.5% BSA using an EL406 plate washer. […] Subsequently, 30 μL of 1× Permeabilization buffer was added prior to centrifuging the cells and discarding the supernatant. Stained cells were resuspended in 30 μL of flow cytometry staining buffer (PBS+0.5% BSA) and analyzed using an Intellicyt Ique Plus flow cytometer.
# Helios, sequence (Q9UKS7 whole entry): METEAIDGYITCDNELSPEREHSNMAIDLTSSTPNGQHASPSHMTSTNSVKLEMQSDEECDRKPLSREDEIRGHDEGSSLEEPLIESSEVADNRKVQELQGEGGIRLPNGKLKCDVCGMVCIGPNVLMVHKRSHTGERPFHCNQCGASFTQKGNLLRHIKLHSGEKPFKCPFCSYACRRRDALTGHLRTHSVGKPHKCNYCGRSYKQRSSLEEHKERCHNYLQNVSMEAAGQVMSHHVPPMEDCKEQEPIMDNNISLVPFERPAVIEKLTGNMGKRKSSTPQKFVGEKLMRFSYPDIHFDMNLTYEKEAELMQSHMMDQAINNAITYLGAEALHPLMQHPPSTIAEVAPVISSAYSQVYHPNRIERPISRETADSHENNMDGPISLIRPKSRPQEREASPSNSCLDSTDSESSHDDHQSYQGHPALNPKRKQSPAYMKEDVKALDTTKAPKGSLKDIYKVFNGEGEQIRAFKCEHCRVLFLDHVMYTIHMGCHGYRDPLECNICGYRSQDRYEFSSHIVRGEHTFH
# Helios, sequence (Q96SW2 whole entry): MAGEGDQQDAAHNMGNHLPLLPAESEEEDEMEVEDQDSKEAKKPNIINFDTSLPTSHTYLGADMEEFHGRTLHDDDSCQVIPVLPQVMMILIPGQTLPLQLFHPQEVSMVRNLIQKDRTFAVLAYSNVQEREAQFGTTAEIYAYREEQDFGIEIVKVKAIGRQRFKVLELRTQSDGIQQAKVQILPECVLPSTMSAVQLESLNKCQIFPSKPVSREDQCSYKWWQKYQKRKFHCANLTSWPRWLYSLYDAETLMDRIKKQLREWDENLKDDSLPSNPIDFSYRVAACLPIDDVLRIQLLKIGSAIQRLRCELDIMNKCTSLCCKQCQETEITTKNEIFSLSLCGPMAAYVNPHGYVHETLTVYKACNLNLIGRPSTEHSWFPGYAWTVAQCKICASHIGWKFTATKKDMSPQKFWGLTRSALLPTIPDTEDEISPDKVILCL
# Helios, sequence (Q16531 whole entry partner): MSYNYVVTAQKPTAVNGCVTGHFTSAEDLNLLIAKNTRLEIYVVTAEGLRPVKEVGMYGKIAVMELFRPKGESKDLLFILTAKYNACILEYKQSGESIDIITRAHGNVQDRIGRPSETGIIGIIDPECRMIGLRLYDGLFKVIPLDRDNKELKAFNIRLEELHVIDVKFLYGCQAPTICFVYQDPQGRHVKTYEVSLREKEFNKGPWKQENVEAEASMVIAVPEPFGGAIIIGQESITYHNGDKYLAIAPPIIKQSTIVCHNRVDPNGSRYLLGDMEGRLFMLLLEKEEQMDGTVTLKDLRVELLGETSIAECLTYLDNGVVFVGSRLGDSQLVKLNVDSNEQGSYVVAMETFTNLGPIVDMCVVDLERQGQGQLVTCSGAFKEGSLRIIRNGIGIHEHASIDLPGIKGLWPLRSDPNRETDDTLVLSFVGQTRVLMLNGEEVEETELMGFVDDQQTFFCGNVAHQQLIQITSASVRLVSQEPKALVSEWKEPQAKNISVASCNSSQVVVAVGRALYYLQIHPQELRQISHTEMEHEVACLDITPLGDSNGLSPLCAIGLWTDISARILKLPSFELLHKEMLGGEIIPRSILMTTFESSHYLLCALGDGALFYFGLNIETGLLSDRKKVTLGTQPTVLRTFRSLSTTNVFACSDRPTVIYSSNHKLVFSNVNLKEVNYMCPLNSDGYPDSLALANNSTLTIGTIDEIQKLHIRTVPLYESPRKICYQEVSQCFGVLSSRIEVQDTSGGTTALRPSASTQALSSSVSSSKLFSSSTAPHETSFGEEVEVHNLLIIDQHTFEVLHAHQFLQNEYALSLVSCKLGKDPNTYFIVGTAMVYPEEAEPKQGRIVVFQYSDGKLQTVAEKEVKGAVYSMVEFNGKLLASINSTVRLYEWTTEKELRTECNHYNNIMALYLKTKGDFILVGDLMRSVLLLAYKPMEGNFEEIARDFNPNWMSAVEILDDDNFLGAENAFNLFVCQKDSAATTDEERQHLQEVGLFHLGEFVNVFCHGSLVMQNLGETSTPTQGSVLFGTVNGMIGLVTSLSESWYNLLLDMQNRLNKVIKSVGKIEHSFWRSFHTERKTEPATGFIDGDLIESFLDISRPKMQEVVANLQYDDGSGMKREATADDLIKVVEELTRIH
row,SMILES,DC50 [nM]
1,"O=C1CCC(N2Cc3cc(-c4nccc(CN5CC[C@@H](F)C5)c4F)ccc3C2=O)C(=O)N1 (stereo partly drawn) [Example 258, 3-(5-(3-fluoro-4-(((R)-3-fluoropyrrolidin-1-yl)methyl)pyridin-2-yl)-1-oxoisoindolin-2-yl)piperidine-2,6-dione]",≥ 10000
2,"O=C1CCC(N2Cc3cc(-c4cc(CN5CC[C@@H]5COc5ccc(Cl)nc5)ccn4)ccc3C2=O)C(=O)N1 (stereo partly drawn) [Example 191, 3-(5-(4-(((R)-2-(((6-chloropyridin-3-yl)oxy)methyl)azetidin-1-yl)methyl)pyridin-2-yl)-1-oxoisoindolin-2-yl)piperidine-2,6-dione]",53.6
3,"O=C1CCC(N2Cc3cc(-c4nccc(CN5CCCC(F)(c6ccccc6)C5)c4F)ccc3C2=O)C(=O)N1 (stereo not drawn) [Example 253, 3-(5-(3-fluoro-4-((3-fluoro-3-phenylpiperidin-1-yl)methyl)pyridin-2-yl)-1-oxoisoindolin-2-yl)piperidine-2,6-dione]",≥ 10000
4,"O=C1CCC(N2Cc3cc(-c4nccc(CN5CCn6cnnc6C5)c4F)ccc3C2=O)C(=O)N1 (stereo not drawn) [Example 263, 3-(5-(4-((5,6-dihydro-[1,2,4]triazolo[4,3-a]pyrazin-7(8H)-yl)methyl)-3-fluoropyridin-2-yl)-1-oxoisoindolin-2-yl)piperidine-2,6-dione]",1230
5,"O=C1CCC(N2Cc3cc(-c4cc(CN5C[C@@H]6C(CO)[C@@H]6C5)ccn4)ccc3C2=O)C(=O)N1 (stereo partly drawn) [Example 101, 3-(5-(4-(((1R,5S,6r)-6-(hydroxymethyl)-3-azabicyclo[3.1.0]hexan-3-yl)methyl)pyridin-2-yl)-1-oxoisoindolin-2-yl)piperidine-2,6-dione]",4.2
6,"O=C1CCC(N2Cc3cc(-c4nccc(CN5CCC(O)(Cc6ccccc6)CC5)c4F)ccc3C2=O)C(=O)N1 (stereo not drawn) [Example 235, 3-(5-(4-((4-benzyl-4-hydroxypiperidin-1-yl)methyl)-3-fluoropyridin-2-yl)-1-oxoisoindolin-2-yl)piperidine-2,6-dione]",330
7,"O=C1CCC(N2Cc3cc(-c4nccc(CN5CCc6[nH]ncc6C5)c4F)ccc3C2=O)C(=O)N1 (stereo not drawn) [Example 254, 3-(5-(3-fluoro-4-((1,4,6,7-tetrahydro-5H-pyrazolo[4,3-c]pyridin-5-yl)methyl)pyridin-2-yl)-1-oxoisoindolin-2-yl) piperidine-2,6-dione]",≥ 10000
8,"CC(C)(C)OC(=O)N[C@H]1C[C@H](F)CN(Cc2ccnc(-c3ccc4c(c3)CN(C3CCC(=O)NC3=O)C4=O)c2F)C1 (stereo partly drawn) [Example 236, tert-butyl ((3S,5S)-1-((2-(2-(2,6-dioxopiperidin-3-yl)-1-oxoisoindolin-5-yl)-3-fluoropyridin-4-yl)methyl)-5-fluoropiperidin-3-yl)carbamate]",≥ 10000
9,"Cc1nnc2n1CCN(Cc1ccnc(-c3ccc4c(c3)CN(C3CCC(=O)NC3=O)C4=O)c1F)C2 (stereo not drawn) [Example 262, 3-(5-(3-fluoro-4-((3-methyl-5,6-dihydro-[1,2,4]triazolo[4,3-a]pyrazin-7(8H)-yl)methyl)pyridin-2-yl)-1-oxoisoindolin-2-yl)piperidine-2,6-dione]",≥ 10000
10,"Cc1cnn(Cc2ccnc(-c3ccc4c(c3)CN([C@H]3CCC(=O)NC3=O)C4=O)c2)c1 [Example 166, (S)-3-(5-(4-((4-methyl-1H-pyrazol-1-yl)methyl)pyridin-2-yl)-1-oxoisoindolin-2-yl)piperidine-2,6-dione]",≥ 10000
11,"CC(=O)N1CCCCN1Cc1ccnc(-c2ccc3c(c2)CN(C2CCC(=O)NC2=O)C3=O)c1F (stereo not drawn) [Example 199, 3-(5-(4-((2-acetyltetrahydropyridazin-1(2H)-yl)methyl)-3-fluoropyridin-2-yl)-1-oxoisoindolin-2-yl)piperidine-2,6-dione]",≥ 10000
12,"O=C1CC[C@H](N2Cc3cc(-c4nccc(CN5CC6(CC(O)C6)C5)c4F)ccc3C2=O)C(=O)N1 [Example 153, (S)-3-(5-(3-fluoro-4-((6-hydroxy-2-azaspiro[3.3]heptan-2-yl)methyl)pyridin-2-yl)-1-oxoisoindolin-2-yl)piperidine-2,6-dione]",15.3
13,"CC(C)(C)OC(=O)NC[C@@H]1CCCN1Cc1ccnc(-c2ccc3c(c2)CN(C2CCC(=O)NC2=O)C3=O)c1 (stereo partly drawn) [Example 195, tert-butyl (((2S)-1-((2-(2-(2,6-dioxopiperidin-3-yl)-1-oxoisoindolin-5-yl)pyridin-4-yl)methyl)pyrrolidin-2-yl)methyl)carbamate]",23.5
14,"COC(=O)N[C@H]1CN(Cc2ccnc(-c3ccc4c(c3)CN(C3CCC(=O)NC3=O)C4=O)c2F)C[C@@H]1O (stereo partly drawn) [Example 248, methyl ((3S,4S)-1-((2-(2-(2,6-dioxopiperidin-3-yl)-1-oxoisoindolin-5-yl)-3-fluoropyridin-4-yl)methyl)-4-hydroxypyrrolidin-3-yl)carbamate]",≥ 10000
15,"O=C1CCC(N2Cc3cc(-c4cc(CN5CCC[C@H]5C(=O)NC5CCCCC5)ccn4)ccc3C2=O)C(=O)N1 (stereo partly drawn) [Example 190, (2S)—N-cyclohexyl-1-((2-(2-(2,6-dioxopiperidin-3-yl)-1-oxoisoindolin-5-yl)pyridin-4-yl)methyl)pyrrolidine-2-carboxamide]",49.7
16,"O=C1CCC(N2Cc3cc(-c4nccc(CN5CCC(F)(F)CC5)c4F)ccc3C2=O)C(=O)N1 (stereo not drawn) [Example 261, 3-(5-(4-((4,4-difluoropiperidin-1-yl)methyl)-3-fluoropyridin-2-yl)-1-oxoisoindolin-2-yl)piperidine-2,6-dione]",≥ 10000
17,"CC(=O)N1CC2CCC(C1)N2Cc1ccnc(-c2ccc3c(c2)CN(C2CCC(=O)NC2=O)C3=O)c1F (stereo not drawn) [Example 227, 3-(5-(4-((3-acetyl-3,8-diazabicyclo[3.2.1]octan-8-yl)methyl)-3-fluoropyridin-2-yl)-1-oxoisoindolin-2-yl)piperidine-2,6-dione]",≥ 10000
18,"CC(=O)N1CC2CCCN(Cc3ccnc(-c4ccc5c(c4)CN(C4CCC(=O)NC4=O)C5=O)c3F)C2C1 (stereo not drawn) [Example 274, 3-(5-(4-((6-acetyloctahydro-1H-pyrrolo[3,4-b]pyridin-1-yl)methyl)-3-fluoropyridin-2-yl)-1-oxoisoindolin-2-yl)piperidine-2,6-dione]",≥ 10000
19,"CC(C)(O)C1CCN(Cc2ccnc(-c3ccc4c(c3F)CN(C3CCC(=O)NC3=O)C4=O)c2F)CC1 (stereo not drawn) [Example 276, 3-(4-fluoro-5-(3-fluoro-4-((4-(2-hydroxypropan-2-yl)piperidin-1-yl)methyl)pyridin-2-yl)-1-oxoisoindolin-2-yl)piperidine-2,6-dione]",28
20,"O=C1CC[C@H](N2Cc3cc(-c4cc(CN5CC6(CC(O)C6)C5)ccn4)ccc3C2=O)C(=O)N1 [Example 145, (S)-3-(5-(4-((6-hydroxy-2-azaspiro[3.3]heptan-2-yl)methyl)pyridin-2-yl)-1-oxoisoindolin-2-yl)piperidine-2,6-dione]",0.7
21,"CC(C)(C)OC(=O)N1C[C@@H]2CN(Cc3ccnc(-c4ccc5c(c4)CN([C@H]4CCC(=O)NC4=O)C5=O)c3F)C[C@H]2C1 [Example 154, tert-butyl (3aS,6aS)-5-((2-(2-((S)-2,6-dioxopiperidin-3-yl)-1-oxoisoindolin-5-yl)-3-fluoropyridin-4-yl)methyl)hexahydropyrrolo[3,4-c]pyrrole-2(1H)-carboxylate]",284
22,"C[C@](O)(c1ccccc1)[C@H]1CCCN1Cc1ccnc(-c2ccc3c(c2)CN(C2CCC(=O)NC2=O)C3=O)c1F (stereo partly drawn) [Example 218, 3-(5-(3-fluoro-4-(((R)-2-((S)-1-hydroxy-1-phenylethyl)pyrrolidin-1-yl)methyl)pyridin-2-yl)-1-oxoisoindolin-2-yl)piperidine-2,6-dione]",4130
23,"CC(C)(O)[C@H]1CCN(Cc2ccnc(-c3ccc4c(c3)CN(C3CCC(=O)NC3=O)C4=O)c2)C1 (stereo partly drawn) [Example 104, 3-(5-(4-(((S)-3-(2-hydroxypropan-2-yl)pyrrolidin-1-yl)methyl)pyridin-2-yl)-1-oxoisoindolin-2-yl)piperidine-2,6-dione]",4.2
24,"Cc1cnc(-c2ccc3c(c2)CN(C2CCC(=O)NC2=O)C3=O)cc1CN1CCC(C(C)(C)O)CC1 (stereo not drawn) [Example 167, 3-(5-(4-((4-(2-hydroxypropan-2-yl)piperidin-1-yl)methyl)-5-methylpyridin-2-yl)-1-oxoisoindolin-2-yl)piperidine-2,6-dione]",1
25,"O=C1CCC(N2Cc3cc(-c4cc(CN5CC[C@@H](CO)C5)ccn4)ccc3C2=O)C(=O)N1 (stereo partly drawn) [Example 102, 3-(5-(4-(((R)-3-(hydroxymethyl)pyrrolidin-1-yl)methyl)pyridin-2-yl)-1-oxoisoindolin-2-yl)piperidine-2,6-dione]",8.1
26,"CC1(O)CCCN(Cc2ccnc(-c3ccc4c(c3)CN(C3CCC(=O)NC3=O)C4=O)c2F)CC1 (stereo not drawn) [Example 220, 3-(5-(3-fluoro-4-((4-hydroxy-4-methylazepan-1-yl)methyl)pyridin-2-yl)-1-oxoisoindolin-2-yl)piperidine-2,6-dione]",34.2
27,"C[C@@H]1CN(Cc2ccnc(-c3ccc4c(c3)CN(C3CCC(=O)NC3=O)C4=O)c2F)C[C@H]1O (stereo partly drawn) [Example 232, 3-(5-(3-fluoro-4-(((3S,4R)-3-hydroxy-4-methylpyrrolidin-1-yl)methyl)pyridin-2-yl)-1-oxoisoindolin-2-yl)piperidine-2,6-dione]",38.6
